# Laboratory results from ChEMBL document CHEMBL3638947, “TRPV1 antagonists” (2015).
# Biological target: Transient receptor potential cation channel subfamily V member 1 (Homo sapiens, UniProt Q8NER1)
# Experiment: Activation Assay: The cDNA for human TRPV1 (hTRPV1) was isolated by reverse transcriptase-polymerase chain reaction (RT-PCR) from human small intestine poly A+ RNA supplied by Clontech (Palo Alto, Calif.) using primers designed surrounding the initiation and termination codons identical to the published sequences (Hayes et al. Pain 2000, 88, 205-215). The resulting cDNA PCR products were subcloned into pCIneo mammalian expression vector (Promega) and fully sequenced using fluorescent dye-terminator reagents (Prism, PerkinElmer Applied Biosystems Division) and a PerkinElmer Applied Biosystems Model 373 DNA sequencer or Model 310 genetic analyzer. Expression plasmids encoding the hTRPV1 cDNA were transfected into HEK293 cells using Lipofectamine. Forty-eight hours after transfection, the neomycin-resistant cells were selected with growth medium containing 800 ug/mL Geneticin (Life Technologies, formerly Gibco BRL). Surviving individual colonies were isolated and screened for TRPV1 activity.
# Format: cell-based
# Chain of Transient receptor potential cation channel subfamily V member 1 (Q8NER1 whole entry): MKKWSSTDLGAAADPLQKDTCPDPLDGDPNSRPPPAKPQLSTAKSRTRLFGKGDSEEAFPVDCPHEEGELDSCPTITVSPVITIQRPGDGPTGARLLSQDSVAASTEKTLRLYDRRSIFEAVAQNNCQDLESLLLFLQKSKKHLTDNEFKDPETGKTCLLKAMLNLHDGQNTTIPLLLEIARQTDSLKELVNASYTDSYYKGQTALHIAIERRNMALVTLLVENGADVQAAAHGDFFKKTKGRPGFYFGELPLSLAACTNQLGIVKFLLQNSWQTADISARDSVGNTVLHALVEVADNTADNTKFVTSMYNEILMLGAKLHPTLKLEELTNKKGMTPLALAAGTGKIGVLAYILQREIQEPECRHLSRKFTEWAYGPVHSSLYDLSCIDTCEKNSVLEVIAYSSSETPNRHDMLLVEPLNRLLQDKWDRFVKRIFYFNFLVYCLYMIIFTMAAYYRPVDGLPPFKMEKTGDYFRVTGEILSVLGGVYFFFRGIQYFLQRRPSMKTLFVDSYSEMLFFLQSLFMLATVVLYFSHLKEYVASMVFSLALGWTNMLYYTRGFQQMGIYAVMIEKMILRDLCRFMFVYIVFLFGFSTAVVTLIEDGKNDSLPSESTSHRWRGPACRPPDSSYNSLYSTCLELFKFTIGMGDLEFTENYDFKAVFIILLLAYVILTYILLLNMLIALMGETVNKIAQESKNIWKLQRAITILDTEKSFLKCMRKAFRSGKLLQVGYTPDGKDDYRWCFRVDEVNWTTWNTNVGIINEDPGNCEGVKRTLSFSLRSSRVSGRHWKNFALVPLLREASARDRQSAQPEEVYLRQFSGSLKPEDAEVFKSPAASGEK
row,SMILES,IC50
1,CN1C(=O)CCc2ccc(NC(=O)N[C@@H]3CCOc4c3cccc4C(F)(F)F)cc21,94 nM
2,CCC1(CC)C[C@@H](NC(=O)Nc2cccc3c2CNC(=O)N3C)c2ccc(F)cc2O1,24 nM
3,O=C1CCc2ccc(NC(=O)N[C@@H]3CC(CF)(CF)Oc4cc(Cl)ccc43)cc2N1,35 nM
4,CN1C(=O)NCc2c(NC(=O)N[C@@H]3CC(C)(C)Oc4ccccc43)cccc21,37 nM
5,Cn1c(=O)ccc2c(NC(=O)N[C@@H]3CC(C)(C)Oc4cc(F)ccc43)cccc21,10 nM
6,CN1C(=O)NCc2c(NC(=O)N[C@@H]3CC(C)(C)c4ccccc43)cccc21,29 nM
7,CN1C(=O)NCc2c(NC(=O)N[C@@H]3CC(C)(C)Oc4cc(Cl)ccc43)cccc21,42 nM
8,CN1C(=O)NCc2c(NC(=O)N[C@@H]3CC(CF)(CF)Oc4c3ccc(Cl)c4F)cccc21,25 nM
9,CN1Cc2ccc(NC(=O)N[C@@H]3CC(C)(C)Oc4c(F)cccc43)cc2NC1=O,820 nM
